In patent US6264994A, “Compositions for treating alzheimer's disease and other amyloidoses” (priority 1998, dated 2001):
Structures can show the parent of a compound that is named as a salt.

Key:
Alzheimer's Aβ (1-40) = molecular target: T1, Alzheimer's Aβ (1-40) (Homo sapiens, UniProt P05067); assay: Thioflavin T fluorometry assay of Aβ (1-40) amyloid fibril formation over 1 week; type: biochemical; conditions: 1 hour to 1 week, 25 μM Aβ (1-40)
T1 construct: aggregates to fibrils, Thioflavin T fluorometry
T1 sequence (P05067 672-711): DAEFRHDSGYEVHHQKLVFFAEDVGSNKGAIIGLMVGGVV
Source text: A previously described method of measuring amyloid fibril formation utilizing Thioflavin T fluorometry (H Naiki et al, Lab. Invest. 65:104-110, 1991; H Levine III, Protein Sci. 2:404-410, 1993; H Levine III, Amyloid: Int. J. Exp. Clin. Invest. 2:1-6, 1995; H Naiki and K. Nakakuki, Lab. Invest. 74:374-383,1996) was employed initially to identify potential therapeutic compounds capable of inhibiting Alzheimer's Aβ amyloid fibril formation. Using this sensitive assay, any decreases or increases in fluorescence was previously shown to correlate with a decrease or increase in the amount of amyloid fibrils (H Naiki et al, Lab. Invest. 65:104-110, 1991; H Levine III, Protein Sci. 2:404-410, 1993; H Levine III, Amyloid: Int. J. Exp. Clin. Invest. 2:1-6, 1995; H Naiki and K. Nakakuki, Lab. Invest. 74:374-383, 1996), allowing one to determine the identification and extent of potential inhibitors and/or enhancers of amyloid fibril formation.
In one study, the effects of various compounds on Alzheimer's Aβ (1-40) fibril formation was assessed by Thioflavin T fluorometry. Thioflavin T is known to bind to fibrillar amyloid proteins, and an increase in fluorescence correlates with an increase in amyloid fibril formation, whereas a decrease in fluorescence correlates with a decrease in amyloid fibril formation. The Alzheimer's Aβ protein (1-40) when incubated at 37° C. tends to spontaneously form amyloid fibrils which increase in quantity over time. […]
To assess the effects of each compound on Aβ (1-40) fibril formation, 50 μl aliquots were taken from each tube for analysis at 1 hr, 1 day, 3 days, and 1 week. […] Fluorescence emission at 482 nm was measured on a Turner instrument-model 450 fluorometer at an excitation wavelength of 450 nm. For each determination,the fluorometer was calibrated by zeroing in the presence of the Thioflavin T reagent alone, and by setting the 50 ng/ml riboflavin (Sigma Chemical Co., St. Louis, Mo.) in the Thioflavin T reagent to 1800 fluorescence units. […]

Aβ (1-40) = assay: Solid phase binding assay of Aβ--Aβ interactions (amyloid fibril growth); conditions: FIG. 3; 1.25 mM of test compounds
Source text: In Alzheimer's disease and other amyloidoses, amyloid fibril growth is believed to involve amyloid protein self-interactions (ie. Aβ--Aβ interactions). Any potential effective therapeutic agent for amyloid deposition, accumulation and/or persistence should also be capable of causing an inhibition of amyloid protein self-interactions. This is important for preventing any new amyloid fibril formation when treating Azheimer's disease patients at early stages of the disease. ELISA methodologies (i.e. solid phase binding assays) were therefore used to identify compounds which were capable of inhibiting Aβ--Aβ interactions (i.e. Alzheimer's amyloid fibril growth).
Aβ (1-40) was first labelled with biotin according to the following protocol. 1 mg of Aβ (1-40) (Bachem Inc., Torrance, Calif., USA; Lot #WL934) was dissolved in 200 μl of PBS (pH 8.0) and incubated for 1 week at 37° C. […] The amount of biotin incorporated was then determined using the HABA (2-(4'-hydroxyazo-benzene)benzoic acid) method (according to the manufacturer's protocol; Pierce).
2 μg of unlabelled Aβ in 40 μl of Tris-buffered saline containing 100 mM Tris-HCl, 50 mM NaCl, 3 mM NaN3, pH 7.0 (TBS) was allowed to bind overnight at 4° C. to microtiter wells (Nunc plates, Maxisorb). […] The reaction was stopped with 50 μl of 4N H2 SO4 and read on a Model 450 microplate reader (Biorad, Hercules, Calif., USA) at 490 nm. […]

[1] = test system: Alzheimer's disease patients; conditions: literature; cited from earlier work
[2] = Example 1, FIG. 1, 1.25 mM test compound (PTI-00700 at 1:227 dilution)

| SMILES | effect on Aβ (1-40) amyloid fibril formation (Alzheimer's Aβ (1-40); [2]) | effect on amyloid fibril growth / Aβ--Aβ interactions (Aβ (1-40)) | cognitive improvement in Alzheimer's disease patients [1] | further results |
| --- | --- | --- | --- | --- |
| N[C@H]1C(O)O[C@H](CO)[C@@H](O)[C@@H]1O (some centres unmarked) [PTI-00712, glucosamine] |  |  |  | effect on Aβ (1-40) amyloid fibril formation (Alzheimer's Aβ (1-40); Example 2, FIG. 2, 1.25 mM test compound): no inhibitory effect |
| Nc1c2c(nc3ccccc13)CCCC2 [Tacrine hydrochloride] |  |  | limited success | side effects [1]: liver toxicity |
| COc1cc2c(cc1OC)C(=O)C(CC1CCN(Cc3ccccc3)CC1)C2 (centres unmarked) [donepezil] |  |  | slight cognitive improvement |  |

Second part, led by results:

| effect on Aβ (1-40) amyloid fibril formation (Alzheimer's Aβ (1-40); [2]) | effect on amyloid fibril growth / Aβ--Aβ interactions (Aβ (1-40)) | SMILES | cognitive improvement in Alzheimer's disease patients [1] | further results |
| --- | --- | --- | --- | --- |
| did not significantly inhibit | no inhibitory effects | N[C@H]1C(O)O[C@H](CO)[C@@H](O)[C@@H]1O (some centres unmarked) [PTI-00800, glucosamine] |  |  |
| did not significantly inhibit | no inhibitory effects | N[C@H]1C(O)O[C@H](CO)[C@@H](O)[C@@H]1O (some centres unmarked) [PTI-00900, glucosamine] |  |  |
